In publication PMC5762315, “Inhibition of polo-like kinase 4 (PLK4): a new therapeutic option for rhabdoid tumors and pediatric medulloblastoma” (Oncotarget, 2017):
Several values for one entry are separate records, joined by “and”; a condition that tells them apart may be missing. Equal values may be shown once.

Assays:
Assay in all cases: biochemical
Type in all cases: biochemical
various kinases [1] = target: various kinases (Homo sapiens, UniProt P06241); conditions: FYN
various kinases [2] = target: various kinases (Homo sapiens, UniProt P10721, V560G); conditions: KIT V560G
Sequence of various kinases (Homo sapiens, UniProt P10721, V560G) (P10721 26-976 V560G): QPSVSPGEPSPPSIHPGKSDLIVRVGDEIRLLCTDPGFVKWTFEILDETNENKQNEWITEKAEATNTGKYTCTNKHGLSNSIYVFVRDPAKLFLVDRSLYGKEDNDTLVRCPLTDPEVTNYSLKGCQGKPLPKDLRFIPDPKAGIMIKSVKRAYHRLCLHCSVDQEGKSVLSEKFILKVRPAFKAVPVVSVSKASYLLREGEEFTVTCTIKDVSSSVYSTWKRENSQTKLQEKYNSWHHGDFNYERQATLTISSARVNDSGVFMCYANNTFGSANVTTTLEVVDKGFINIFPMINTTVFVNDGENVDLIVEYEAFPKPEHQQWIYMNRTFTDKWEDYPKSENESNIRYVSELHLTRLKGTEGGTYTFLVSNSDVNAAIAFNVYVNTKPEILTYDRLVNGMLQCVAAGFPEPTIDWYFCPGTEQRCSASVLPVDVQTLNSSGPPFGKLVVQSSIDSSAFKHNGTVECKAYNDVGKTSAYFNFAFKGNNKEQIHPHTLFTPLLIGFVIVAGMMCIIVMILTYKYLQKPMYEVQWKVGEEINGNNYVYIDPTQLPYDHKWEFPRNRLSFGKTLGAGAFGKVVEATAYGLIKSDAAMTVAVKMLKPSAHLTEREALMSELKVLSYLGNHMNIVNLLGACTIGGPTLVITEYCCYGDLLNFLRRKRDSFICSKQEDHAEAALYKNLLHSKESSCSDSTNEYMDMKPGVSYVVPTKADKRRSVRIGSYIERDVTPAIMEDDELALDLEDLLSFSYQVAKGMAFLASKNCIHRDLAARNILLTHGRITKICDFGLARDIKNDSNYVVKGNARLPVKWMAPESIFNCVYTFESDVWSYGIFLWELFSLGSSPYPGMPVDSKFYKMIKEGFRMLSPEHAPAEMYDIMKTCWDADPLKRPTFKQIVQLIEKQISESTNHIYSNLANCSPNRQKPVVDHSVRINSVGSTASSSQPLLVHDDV

various kinases [3] = target: various kinases (Homo sapiens, UniProt P31749); conditions: AKT1 (PKB alpha)
Sequence of various kinases (Homo sapiens, UniProt P31749) (P31749 whole entry): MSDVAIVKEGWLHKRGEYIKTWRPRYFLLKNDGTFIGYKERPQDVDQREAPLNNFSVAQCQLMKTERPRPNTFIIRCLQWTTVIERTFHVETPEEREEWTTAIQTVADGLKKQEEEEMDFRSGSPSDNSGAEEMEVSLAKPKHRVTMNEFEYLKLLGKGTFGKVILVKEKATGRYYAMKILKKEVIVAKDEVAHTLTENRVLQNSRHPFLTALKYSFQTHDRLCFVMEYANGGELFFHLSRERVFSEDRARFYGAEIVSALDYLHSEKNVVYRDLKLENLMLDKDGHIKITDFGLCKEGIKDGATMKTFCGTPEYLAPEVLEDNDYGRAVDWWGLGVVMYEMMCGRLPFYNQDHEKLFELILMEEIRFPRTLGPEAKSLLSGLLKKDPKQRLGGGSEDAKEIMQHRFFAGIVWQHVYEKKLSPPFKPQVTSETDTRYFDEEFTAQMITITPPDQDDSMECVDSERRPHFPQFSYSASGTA

various kinases [4] = target: various kinases (Homo sapiens, UniProt P49759); conditions: CLK1
Sequence of various kinases (Homo sapiens, UniProt P49759) (P49759 whole entry): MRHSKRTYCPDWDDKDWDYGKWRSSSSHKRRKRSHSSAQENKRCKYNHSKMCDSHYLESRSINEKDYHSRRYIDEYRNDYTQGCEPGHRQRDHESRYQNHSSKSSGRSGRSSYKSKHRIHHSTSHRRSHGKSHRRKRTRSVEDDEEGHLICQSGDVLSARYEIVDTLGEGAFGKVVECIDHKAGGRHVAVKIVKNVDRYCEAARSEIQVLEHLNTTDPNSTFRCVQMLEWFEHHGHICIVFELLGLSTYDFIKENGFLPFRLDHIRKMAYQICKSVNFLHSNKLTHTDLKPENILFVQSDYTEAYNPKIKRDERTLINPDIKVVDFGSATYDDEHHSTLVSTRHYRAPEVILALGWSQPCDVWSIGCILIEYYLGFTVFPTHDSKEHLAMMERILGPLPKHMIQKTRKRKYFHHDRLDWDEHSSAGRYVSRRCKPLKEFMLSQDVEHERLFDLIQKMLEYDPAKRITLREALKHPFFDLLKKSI

various kinases [5] = target: various kinases (Homo sapiens, UniProt Q56UN5); conditions: MAP3K19 (YSK4)
Sequence of various kinases (Homo sapiens, UniProt Q56UN5) (Q56UN5 whole entry): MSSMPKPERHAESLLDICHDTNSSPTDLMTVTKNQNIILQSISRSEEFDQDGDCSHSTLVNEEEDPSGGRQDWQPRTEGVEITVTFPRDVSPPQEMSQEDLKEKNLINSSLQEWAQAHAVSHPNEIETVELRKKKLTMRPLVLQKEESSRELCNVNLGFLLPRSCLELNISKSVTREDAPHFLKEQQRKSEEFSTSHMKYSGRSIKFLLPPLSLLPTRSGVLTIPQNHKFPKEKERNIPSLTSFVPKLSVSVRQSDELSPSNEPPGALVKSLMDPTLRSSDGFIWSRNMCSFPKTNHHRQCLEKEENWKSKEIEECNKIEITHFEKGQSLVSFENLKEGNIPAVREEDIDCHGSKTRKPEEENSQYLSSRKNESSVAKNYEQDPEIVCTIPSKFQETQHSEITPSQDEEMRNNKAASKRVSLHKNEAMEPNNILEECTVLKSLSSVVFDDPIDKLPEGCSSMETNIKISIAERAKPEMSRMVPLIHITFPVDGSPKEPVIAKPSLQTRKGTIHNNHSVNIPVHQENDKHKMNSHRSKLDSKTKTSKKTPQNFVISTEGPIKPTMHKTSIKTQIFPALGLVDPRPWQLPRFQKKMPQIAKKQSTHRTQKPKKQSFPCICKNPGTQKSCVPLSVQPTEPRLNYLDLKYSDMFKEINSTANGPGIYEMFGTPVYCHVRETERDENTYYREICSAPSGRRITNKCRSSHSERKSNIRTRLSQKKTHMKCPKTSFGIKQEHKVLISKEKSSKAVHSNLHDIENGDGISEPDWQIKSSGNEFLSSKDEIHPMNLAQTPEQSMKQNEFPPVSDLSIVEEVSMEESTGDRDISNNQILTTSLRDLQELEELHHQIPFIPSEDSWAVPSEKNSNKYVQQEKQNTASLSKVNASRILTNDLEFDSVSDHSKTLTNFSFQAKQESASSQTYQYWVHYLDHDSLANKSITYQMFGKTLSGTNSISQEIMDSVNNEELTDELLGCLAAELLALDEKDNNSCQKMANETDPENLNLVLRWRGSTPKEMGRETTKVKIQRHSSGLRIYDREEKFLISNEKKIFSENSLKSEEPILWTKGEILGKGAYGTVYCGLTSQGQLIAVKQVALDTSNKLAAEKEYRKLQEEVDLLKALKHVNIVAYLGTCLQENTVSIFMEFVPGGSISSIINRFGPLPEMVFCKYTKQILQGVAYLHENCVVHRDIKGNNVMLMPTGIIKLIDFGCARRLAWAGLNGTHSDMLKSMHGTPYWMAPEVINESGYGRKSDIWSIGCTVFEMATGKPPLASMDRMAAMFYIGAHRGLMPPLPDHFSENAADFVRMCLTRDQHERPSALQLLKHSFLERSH

various kinases [6] = target: various kinases (Homo sapiens, UniProt Q9H3Y6); conditions: kinase SRMS (Srm); ZLYTE
Sequence of various kinases (Homo sapiens, UniProt Q9H3Y6) (Q9H3Y6 whole entry): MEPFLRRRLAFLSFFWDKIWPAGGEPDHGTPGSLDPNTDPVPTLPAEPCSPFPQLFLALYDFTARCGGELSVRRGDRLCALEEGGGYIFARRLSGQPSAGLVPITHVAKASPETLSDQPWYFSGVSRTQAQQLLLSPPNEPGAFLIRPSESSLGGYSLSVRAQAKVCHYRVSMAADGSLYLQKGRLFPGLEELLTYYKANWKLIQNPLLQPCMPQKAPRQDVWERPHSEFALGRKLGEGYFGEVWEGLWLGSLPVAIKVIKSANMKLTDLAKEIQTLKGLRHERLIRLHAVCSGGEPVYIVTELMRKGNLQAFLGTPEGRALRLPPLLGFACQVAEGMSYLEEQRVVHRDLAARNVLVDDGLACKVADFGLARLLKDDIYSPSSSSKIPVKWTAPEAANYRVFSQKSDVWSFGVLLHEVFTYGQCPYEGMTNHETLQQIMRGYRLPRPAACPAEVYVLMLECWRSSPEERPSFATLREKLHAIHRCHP

various kinases [7] = target: T1, various kinases (Homo sapiens, UniProt Q9HBY8); conditions: kinase SGK2; ZLYTE
T1 sequence (Q9HBY8 1-367): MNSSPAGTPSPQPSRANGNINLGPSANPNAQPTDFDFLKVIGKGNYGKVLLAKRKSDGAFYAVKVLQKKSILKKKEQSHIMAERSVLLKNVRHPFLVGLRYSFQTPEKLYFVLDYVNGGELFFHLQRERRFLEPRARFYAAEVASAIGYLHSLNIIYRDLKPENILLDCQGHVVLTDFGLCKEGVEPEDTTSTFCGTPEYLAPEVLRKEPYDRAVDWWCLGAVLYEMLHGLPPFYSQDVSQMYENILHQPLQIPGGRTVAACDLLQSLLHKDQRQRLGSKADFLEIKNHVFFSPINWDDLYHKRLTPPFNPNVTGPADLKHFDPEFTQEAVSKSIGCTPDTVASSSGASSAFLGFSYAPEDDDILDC

various kinases [8] = target: T2, various kinases (Homo sapiens, UniProt Q9UL54); conditions: kinase TAOK2 (TAO1); ZLYTE
T2 sequence (Q9UL54 1-1235): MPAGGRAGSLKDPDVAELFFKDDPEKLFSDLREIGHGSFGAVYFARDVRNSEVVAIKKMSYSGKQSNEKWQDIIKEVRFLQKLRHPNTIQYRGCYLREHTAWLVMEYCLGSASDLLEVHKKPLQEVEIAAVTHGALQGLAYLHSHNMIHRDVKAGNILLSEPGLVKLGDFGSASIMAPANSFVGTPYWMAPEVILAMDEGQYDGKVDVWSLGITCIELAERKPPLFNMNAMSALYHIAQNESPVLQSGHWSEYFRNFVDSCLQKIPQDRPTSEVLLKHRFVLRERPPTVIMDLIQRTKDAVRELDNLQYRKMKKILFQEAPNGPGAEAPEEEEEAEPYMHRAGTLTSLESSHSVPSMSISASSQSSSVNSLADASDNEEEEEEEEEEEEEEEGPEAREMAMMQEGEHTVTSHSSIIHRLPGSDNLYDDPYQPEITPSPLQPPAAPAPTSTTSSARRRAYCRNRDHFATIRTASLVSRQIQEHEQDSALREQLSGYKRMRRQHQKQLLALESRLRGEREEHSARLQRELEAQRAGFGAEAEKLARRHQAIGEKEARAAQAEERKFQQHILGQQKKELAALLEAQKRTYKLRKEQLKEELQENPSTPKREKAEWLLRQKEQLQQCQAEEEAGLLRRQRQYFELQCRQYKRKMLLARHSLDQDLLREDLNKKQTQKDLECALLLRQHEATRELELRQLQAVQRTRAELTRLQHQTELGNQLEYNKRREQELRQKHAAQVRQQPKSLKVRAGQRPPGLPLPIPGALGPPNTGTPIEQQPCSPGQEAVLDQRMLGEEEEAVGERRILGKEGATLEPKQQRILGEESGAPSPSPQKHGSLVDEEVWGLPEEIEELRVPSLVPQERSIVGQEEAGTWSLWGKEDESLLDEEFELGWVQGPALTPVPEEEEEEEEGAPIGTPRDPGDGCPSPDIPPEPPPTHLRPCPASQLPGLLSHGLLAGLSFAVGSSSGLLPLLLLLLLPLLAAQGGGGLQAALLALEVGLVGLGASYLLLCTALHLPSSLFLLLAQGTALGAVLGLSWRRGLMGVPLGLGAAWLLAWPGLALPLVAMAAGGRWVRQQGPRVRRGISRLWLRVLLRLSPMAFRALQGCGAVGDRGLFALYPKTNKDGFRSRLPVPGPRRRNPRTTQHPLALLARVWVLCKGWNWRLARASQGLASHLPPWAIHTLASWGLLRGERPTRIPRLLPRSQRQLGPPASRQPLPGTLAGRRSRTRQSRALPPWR

Sequence of various kinases (Homo sapiens, UniProt P06241) (P06241 whole entry): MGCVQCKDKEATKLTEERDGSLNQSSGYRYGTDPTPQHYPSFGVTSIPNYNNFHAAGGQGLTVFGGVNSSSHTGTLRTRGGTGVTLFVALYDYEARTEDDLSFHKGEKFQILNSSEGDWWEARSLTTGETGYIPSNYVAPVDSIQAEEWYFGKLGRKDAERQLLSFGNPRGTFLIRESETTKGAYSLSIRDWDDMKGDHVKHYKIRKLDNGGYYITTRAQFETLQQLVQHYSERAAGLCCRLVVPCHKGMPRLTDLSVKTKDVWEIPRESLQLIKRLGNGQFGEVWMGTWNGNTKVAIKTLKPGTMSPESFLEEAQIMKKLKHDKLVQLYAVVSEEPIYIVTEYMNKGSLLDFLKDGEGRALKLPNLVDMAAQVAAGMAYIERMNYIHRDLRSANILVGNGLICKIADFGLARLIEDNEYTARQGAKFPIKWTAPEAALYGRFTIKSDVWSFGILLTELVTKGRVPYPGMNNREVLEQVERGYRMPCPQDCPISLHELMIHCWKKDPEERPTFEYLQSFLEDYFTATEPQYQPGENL

Structure (SMILES): COc1ccc2c(c1)[C@]1(C[C@H]1c1ccc3c(/C=C/c4ccc(CN5C[C@@H](C)O[C@@H](C)C5)cc4)n[nH]c3c1)C(=O)N2 [CFI-400945]
- % Inhibition (various kinases [1]): 6% and 5%
- % Inhibition (various kinases [2]): 11% and 7%
- % Inhibition (various kinases [3]): 4% and 3%
- % Inhibition (various kinases [4]): -1%
- % Inhibition (various kinases [5]): 7% and 4%
- % Inhibition Average (various kinases [6]): 11%
- % Inhibition Duplicate #1 (various kinases [6]): 10%
- % Inhibition Duplicate #2 (various kinases [6]): 12%
- % Inhibition Average (various kinases [7]): 5%
- % Inhibition Duplicate #1 (various kinases [7]): 4%
- % Inhibition Duplicate #2 (various kinases [7]): 5%
- % Inhibition Average (various kinases [8]): 4%
- % Inhibition Duplicate #1 (various kinases [8]): 3%
- % Inhibition Duplicate #2 (various kinases [8]): 5%
